Measurements reported in PMC1997131, “Enzymes involved in DNA ligation and end-healing in the radioresistant bacterium Deinococcus radiodurans” (BMC Molecular Biology, 2007).

Target: T1, LigA (Deinococcus radiodurans, UniProt Q9RSQ5)
T1 construct: full-length, N-terminal hexahistidine tag (pRSETb, kept), E. coli BL21(DE3)
Test: adenylyltransferase assay, SDS-PAGE autoradiography
Assay type: biochemical
Conditions: 0.1 μM [32P]-NAD+, 1 mM MnCl2, pH 6.8, 30 °C; covalent AMP adduct; labelled compound

For `NC(=O)c1ccc[n+]([C@@H]2O[C@H](COP(=O)(O)OP(=O)(O)OC[C@H]3O[C@@H](n4cnc5c(N)ncnc54)[C@H](O)[C@@H]3O)[C@@H](O)[C@H]2O)c1` [NAD^+], the “adenylyltransferase assay, SDS-PAGE autoradiography” value was “in an adenylyltransferase activity assay LigA wt formed an AMP-ligase complex”.
